The source of these data is patent publication US8969861B2, “Method of manufacturing organic electroluminescence display device” (Canon Kabushiki Kaisha, priority 2012, dated 2015).

Common to all, as to type: physicochemical
A short description of data set [1]: Etching (dissolution) rate of deposited layers in IPA/water mixed solvent. The following applies: IPA 60 wt %; for etching rate of the layer: identical etching conditions. The text has this: In the present invention, a larger etching rate means a higher dissolution rate. In addition, a larger etching rate means a higher solubility of a layer having a material of interest in the solvent (polar solvent). FIG. 3 is a graph showing thickness changes in the compound 1 and the compound A2 over an etching time. […] On the other hand, the thickness of a layer (layer B) formed of the compound A2 as a heterocyclic compound reduces over time. When the etching rates of the respective layers are calculated with their etching conditions made identical to each other, the etching rate of the layer A is 0.008 nm/sec but the etching rate of the layer B is 0.87 nm/sec, that is, a ratio of the latter to the former is about 100.

The nature of data set [2]: Solubility in IPA/water mixed solvent (FIG. 4). The following applies: IPA concentration of 80 wt %. The text has this:
The solubility of a compound as a constituent material for each layer in the IPA/water mixed solvent varies depending on the weight ratio of IPA in the mixed solvent. FIG. 4 is a graph showing the solubilities of the compound 1 (fused polycyclic hydrocarbon compound) and the compound A2 (heterocyclic compound) in the IPA/water mixed solvent (polar solvent). Here, in the graph of FIG. 4, the axis of abscissa indicates the weight percent concentration of IPA in the IPA/water mixed solvent, and the axis of ordinate indicates the amount of the fused polycyclic hydrocarbon compound or heterocyclic compound to dissolve in 1 g of the solvent.

Data set [3] can be described thus: Etching of sacrificial layer by spin washing method (FIG. 6). The conditions noted are these: 60-wt % aqueous solution of IPA; thickness by spectroscopic ellipsometer. The text has this:
The spin washing method involves first dropping a polar solvent 81 onto the sacrificial layer 30 (FIG. 5B), holding the resultant for a predetermined time period (FIG. 5C), then rotating the substrate 10 to splash the polar solvent 81, and drying the substrate 10 by means of the rotation (FIG. 5D). The spin washing method in which the process illustrated in FIGS. 5A to 5D is defined as one cycle is typically repeated a plurality of times. It is to be noted that the polar solvents 81 to be used in the cycle to be performed a plurality of times may be the same every time, or mixed solvents having different compositional ratios may be used in part of the times or every time.
FIG. 6 is a graph showing a relationship between the total time of etching by the spin washing method and the thickness of the sacrificial layer formed of the compound A2. It is to be noted that in the graph of FIG. 6, the compound A2 is used as a constituent material for the sacrificial layer 30 and a 60-wt % aqueous solution of IPA is used as a polar solvent. […] The thickness of the sacrificial layer was measured with a spectroscopic ellipsometer (HORIBA). […] Although the graph shown in FIG. 6 is merely a specific example, the number of repetition of the process based on the spin washing method can be decided by utilizing the quantitative tendency of the sacrificial layer 30 to reduce shown in FIG. 6.

A short description of data set [4]: Etching of sacrificial layer by dipping method (FIG. 9). The conditions noted are these: 60-wt % aqueous solution of IPA; thickness by spectroscopic ellipsometer. The text has this:
The dipping method is a method involving loading the substrate 10 in a container storing the polar solvent, dipping the substrate 10 in the polar solvent for a certain time period, and then taking the substrate 10 out of the container. Upon dipping of the substrate 10 in the polar solvent, (at least part of) the sacrificial layer 30 is eluted. At this time, when the concentration of the water-soluble polymer material constituting the intermediate layer 40, which can be dissolved together with the sacrificial layer 30, in the polar solvent is low, the polar solvent can be reused as the polar solvent to be used in first dipping.
The dipping method is performed by, for example, a method to be described below. […]
FIG. 9 is a graph showing a relationship between the total time of etching by the dipping method and the thickness of the sacrificial layer formed of the compound A2. […] The thickness of the sacrificial layer was measured with a spectroscopic ellipsometer (HORIBA). […] Although the graph shown in FIG. 9 is merely a specific example, the number of repetition of the process based on the dipping method can be decided by utilizing the quantitative tendency of the sacrificial layer 30 to reduce shown in FIG. 9. […]

Molecules are shown by their SMILES.

As to `CC1(C)c2ccccc2-c2ccc(-c3ccc4ccc5ccc(-c6ccc7c(c6)C(C)(C)c6ccccc6-7)nc5c4n3)cc21` [compound A2], in data set [1], the “ratio of etching rate of layer B (compound A2) to layer A (compound 1)” value is given as “about 100” and the “etching rate of the layer” value turned out to be 0.87 nm/s. Besides, the “amount dissolving in 1 g of the IPA/water mixed solvent” value in data set [2] is 73 µg. Besides, in data set [3], the “rate at which the sacrificial layer is etched by one spin washing” value is recorded as “about 6.7 nm”. In data set [4], the “rate at which the sacrificial layer was etched by the dipping method” value is 3.7 nm/time.
Consider `CC1(C)c2cc(-c3ccc4ccc5cccc6ccc3c4c56)ccc2-c2ccc(-c3ccc4ccc5cccc6ccc3c4c56)cc21` [compound 1], for which, in data set [1], the “etching rate of the layer” value came to 0.008 nm/s. In addition, the “amount dissolving in 1 g of the IPA/water mixed solvent” value in data set [2] worked out at 5 µg.
